Experimental data from patent US9718790B2, “Triazine derivative and pharmaceutical composition having an analgesic activity comprising the same” (SHIONOGI & CO., LTD., priority 2010, dated 2017).
pIC50: −log10 of the molar value.

Target: human P2X3 receptor (Homo sapiens (Human), UniProt P56373)
Experiment: Evaluation of human P2X3 receptor inhibitory activity (Fluo-3 calcium fluorescence, FDSS 3000, ATP stimulation);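 further: stimulus was 50 nM ATP with fluorescence followed for 3 min, and the response per well was peak post-ATP fluorescence divided by the reading at measurement start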
Type: cell-based
Details: C6BU-1 cells stably expressing human P2X3 receptor

Chain of human P2X3 receptor (P56373 whole entry): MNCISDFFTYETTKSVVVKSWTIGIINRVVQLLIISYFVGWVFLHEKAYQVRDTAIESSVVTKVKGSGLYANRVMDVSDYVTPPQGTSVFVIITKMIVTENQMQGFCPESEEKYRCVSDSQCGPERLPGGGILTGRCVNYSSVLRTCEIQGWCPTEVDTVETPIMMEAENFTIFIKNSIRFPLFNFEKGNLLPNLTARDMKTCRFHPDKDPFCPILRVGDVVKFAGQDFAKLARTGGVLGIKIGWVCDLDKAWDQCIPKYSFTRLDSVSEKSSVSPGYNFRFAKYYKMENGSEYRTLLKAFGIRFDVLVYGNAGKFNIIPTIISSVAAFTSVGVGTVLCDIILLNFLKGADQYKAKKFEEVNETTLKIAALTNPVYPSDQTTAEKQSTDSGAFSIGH

Structure (SMILES) | pIC50
COC(=O)[C@@H](C)Cn1c(=O)[nH]/c(=N\c2ccc(CC(C)C)c(OC)c2)n(Cc2ccc(C)cc2)c1=O [Compound I-1249] | 7.68
CCn1c(=O)[nH]/c(=N\c2ccc(Oc3nc(C)c(C(=O)O)s3)cc2)n(Cc2ccc(Cl)cc2)c1=O [Compound I-2151] | 7.92
COC(=O)C(C)(C)Cn1c(=O)[nH]/c(=N\c2ccc(CC(C)C)c(Cl)c2)n(Cc2ccc(C)cc2)c1=O [Compound I-1447] | 8.22
Cc1cc(/N=c2\[nH]c(=O)n(C[C@@H](C)C(=O)O)c(=O)n2CC2CCCCC2)ccc1OC(C)C [Compound I-0647] | 6.50
O=c1[nH]/c(=N\c2ccc(OC3CCC3)cc2)n(Cc2ccc(Cl)cc2)c(=O)n1CC(CO)CO [Compound I-1974] | 8.15
CCOC(=O)c1cc(Cn2c(=O)[nH]/c(=N\c3ccc(OC(C)C)c(C)c3)n(Cc3ccc(Cl)cc3)c2=O)on1 [Compound I-0784] | 7.66
CCn1c(=O)[nH]/c(=N\c2ccc(Oc3ccccc3C(N)=O)cc2)n(Cc2ccc(Cl)cc2)c1=O [Compound I-2009] | 6.33
Cc1cc(/N=c2\[nH]c(=O)n(Cc3cccn(CCO)c3=O)c(=O)n2Cc2ccc(Cl)cc2)ccc1OC(C)C [Compound I-0713] | 7.80
C[C@@H](Oc1ccc(/N=c2\[nH]c(=O)n(CC(=O)NCC(F)(F)F)c(=O)n2Cc2ccc(Cl)cc2)cc1)C(F)(F)F [Compound I-1961] | 7.89
CC(C)Oc1ccc(/N=c2\[nH]c(=O)n(CCN/C(=N\C#N)Oc3ccccc3)c(=O)n2Cc2ccc(Cl)cc2)cc1F [Compound I-0652, 1-(4-chlorobenzyl)-6-(3-fluoro-4-isopropoxyphenylimino)-3-(4-cyanoimino-4-phenoxy-3-azabutyl)-1,3,5-triazinane-2,4-dion] | 6.99
CC(C)Oc1ccc(/N=c2\[nH]c(=O)n(CCNCCO)c(=O)n2Cc2ccc(Cl)cc2)cc1F [Compound I-2122] | 7.03
Cc1ccc(Cn2c(=O)n(C[C@H](C)C(=O)O)c(=O)[nH]/c2=N\c2ccc(NS(C)(=O)=O)cc2)cc1 [Compound I-1417] | 6.68
COC(=O)[C@@H](C)Cn1c(=O)[nH]/c(=N\c2ccc(OC)c(Cl)c2)n(Cc2ccc(Cl)cc2)c1=O [Compound I-0702] | 6.97
CCOC(=O)C1CCC(n2c(=O)[nH]/c(=N\c3ccc(OC(C)C)c(C)c3)n(Cc3ccc(Cl)cc3)c2=O)CC1 (centres unmarked) [Compound I-0718] | 7.03
CCCc1ccc(/N=c2\[nH]c(=O)n(C[C@H](C)C(=O)O)c(=O)n2Cc2ccc(Cl)cc2)cc1C [Compound I-1213] | 6.98
CCCc1ccc(/N=c2\[nH]c(=O)n(CCC(=O)O)c(=O)n2Cc2ccc(Cl)cc2)cc1C [Compound I-1253] | 6.55
Cc1ccc(Cn2c(=O)n([C@@H](C)[C@@H](C)C(=O)O)c(=O)[nH]/c2=N\c2cccc(C(F)(F)F)c2)cc1 [Compound I-1335] | 7.52
CC(C)Oc1ccc(/N=c2\[nH]c(=O)n(C[C@@H](O)CO)c(=O)n2Cc2ccc(Cl)cc2)cc1Cl [Compound I-0616] | 8.00
COC(=O)[C@@H](C)Cn1c(=O)[nH]/c(=N\c2ccc(CC#N)c(Cl)c2)n(Cc2ccc(Cl)cc2)c1=O [Compound I-0766] | 6.36
COC(=O)Cn1c(=O)[nH]/c(=N\c2ccc(OC(C)C)c(Cl)c2)n(Cc2ccc(Cl)cc2)c1=O [Compound I-0660] | 7.96
CNC(=O)Cn1c(=O)[nH]/c(=N\c2ccc(Oc3ccnc(C)c3)cc2)n(Cc2ccc(Cl)cc2)c1=O [Compound I-1927] | 8.15
CCOc1ccc2cc(/N=c3\[nH]c(=O)n(CCC(=O)O)c(=O)n3Cc3ccc(C)cc3)ccc2c1 [Compound I-2130] | 6.10
CCn1c(=O)[nH]/c(=N\c2ccc(Oc3ccnc(C(=O)OC)c3)cc2)n(Cc2ccc(Cl)cn2)c1=O [Compound I-2186] | 6.98
COC(=O)[C@H](C)[C@H](C)n1c(=O)[nH]/c(=N\c2ccc(OCC(C)C)cc2)n(Cc2ccc(Cl)cc2)c1=O [Compound I-1329] | 7.31
CCOC(=O)[C@H](CCn1c(=O)[nH]/c(=N\c2ccc(OC(C)C)c(C)c2)n(Cc2ccc(Cl)cc2)c1=O)NC(=O)OC(C)(C)C [Compound I-0717, (S)-1-(4-chlorobenzyl)-3-(3-t-butoxycarbonylamino-3-ethoxycarbonyl-propyl)-6-(3-mehyl-4-isopropoxyphenylimino)-1,3,5-triazinane-2,4-dion] | 7.68
COc1cc(/N=c2\[nH]c(=O)n(C[C@H](C)C(=O)O)c(=O)n2Cc2ccc(Cl)cc2)ccc1CC(C)C [Compound I-1270] | 7.92

Same assay, conditions: C6BU-1 cells stably expressing human P2X3 receptor, Fluo-3 fluorescence, FDSS 3000

Structure (SMILES) | pIC50
CCc1nc2ccc(/N=c3\[nH]c(=O)n(CC(=O)O)c(=O)n3Cc3ccc(Cl)cc3)cc2s1 [Compound I-1798] | 6.82
Cc1ccc(Cn2c(=O)n(C[C@H](C)C(=O)O)c(=O)[nH]/c2=N\c2ccc(OCC(C)(C)C)cc2)cc1 [Compound I-1064] | 6.59
Cc1ccc(Cn2c(=O)n(CC3(C(=O)O)CC3)c(=O)[nH]/c2=N\c2ccc(OC(C)C)c(C)c2)cc1 [Compound I-0935] | 7.42
Cc1ccc(Cn2c(=O)n(C[C@H](C)C(=O)O)c(=O)[nH]/c2=N\c2cccc(CC(C)C)c2)cc1 [Compound I-1137] | 6.17
Cc1cc(Oc2ccc(/N=c3\[nH]c(=O)n(CCO)c(=O)n3Cc3ccc(Cl)cc3)cc2)no1 [Compound I-1756] | 7.52
COC(=O)[C@H](C)Cn1c(=O)[nH]/c(=N\c2ccc(OCC3CC3)cc2)n(Cc2ccc(Cl)cc2)c1=O [Compound I-1036] | 8.30
CCc1oc2ccc(/N=c3\[nH]c(=O)n(CC(=O)OC)c(=O)n3Cc3ccc(Cl)cc3)cc2c1C [Compound I-1564] | 7.89
COC(=O)[C@@H](C)Cn1c(=O)[nH]/c(=N\c2ccc(CN(C)C)c(Cl)c2)n(Cc2ccc(C)cc2)c1=O [Compound I-1172] | 7.01
CCn1c(=O)[nH]/c(=N\c2ccc(Oc3ccc(O)nc3)cc2)n(Cc2ccc(Cl)cc2)c1=O [Compound I-1848] | 7.85
CC(C)Cc1ccc(/N=c2\[nH]c(=O)n(CC(C)(CO)CO)c(=O)n2Cc2ccc(Cl)cc2)cc1Cl [Compound I-1637] | 7.92
C[C@@H](C(=O)O)[C@H](C)n1c(=O)[nH]/c(=N\c2ccc3c(c2)CCCO3)n(Cc2ccc(Cl)cc2)c1=O [Compound I-1820] | 6.69
O=c1[nH]/c(=N\c2ccc(OCC3CC3)cc2)n(Cc2ccc(Cl)cc2)c(=O)n1C[C@H](O)CO [Compound I-1855] | 7.68
Cc1ccc(Cn2c(=O)n(CCC(=O)O)c(=O)[nH]/c2=N\c2ccc(OCCC(C)C)cc2)cc1 [Compound I-1070] | 6.33
COC(=O)CCn1c(=O)[nH]/c(=N\Nc2ccc(OC)cc2)n(Cc2ccc(C)cc2)c1=O [Compound I-1801] | 6.16

Same assay, conditions: human P2X3 receptor, Test Example 1

Structure (SMILES) | pIC50
COC(=O)/C=C/c1cccc(Oc2ccc(/N=c3\[nH]c(=O)n(C)c(=O)n3Cc3ccc(Cl)cc3)cc2)c1 [Compound I-2329] | 7.15
CCn1c(=O)[nH]/c(=N\c2ccc(Oc3ccnc(CN(C)C)c3)cc2)n(Cc2ccc(Cl)cc2)c1=O [Compound I-2244] | 7.23
CCCOc1ccc(/N=c2\[nH]c(=O)n(C[C@H](C)C(=O)O)c(=O)n2Cc2ccc(C)cc2)cc1Cl [Compound I-0840] | 7.77
COC(=O)[C@@H](C)Cn1c(=O)[nH]/c(=N\c2ccc(Oc3ccccc3)nc2)n(Cc2ccc(C)cc2)c1=O [Compound I-1515] | 6.80
Cc1ccc(Cn2c(=O)n(C)c(=O)[nH]/c2=N\c2ccc(Oc3ccc(C(=O)O)cn3)cc2)cc1 [Compound I-2401] | 7.74
O=c1[nH]/c(=N\c2ccc(Oc3ccsn3)cc2)n(Cc2ccc(Cl)cc2)c(=O)n1CCO [Compound I-2563] | 7.82
Cc1nc(-c2ccc(/N=c3\[nH]c(=O)n(C[C@H](C)C(=O)O)c(=O)n3Cc3ccc(Cl)cc3)cc2)no1 [Compound I-1530] | 7.03
Cn1c(=O)[nH]/c(=N\c2ccc(Oc3cc(C(N)=O)ccn3)cc2)n(Cc2ccc(Cl)cc2)c1=O [Compound I-2376] | 7.70
Cn1c(=O)[nH]/c(=N\c2ccc(Oc3ccc(C(N)=O)nn3)cc2)n(Cc2ccc(Cl)cc2)c1=O [Compound I-2379] | 8.05
O=C(O)Cn1c(=O)[nH]/c(=N\c2ccc(Oc3ccon3)cc2)n(Cc2ccc(Cl)cc2)c1=O [Compound I-2504] | 6.43
CCCOc1ccc(/N=c2\[nH]c(=O)n(C[C@H](C)C(=O)O)c(=O)n2Cc2ccc(C)cc2)cc1 [Compound I-0828] | 7.60
COCCn1c(=O)[nH]/c(=N\c2ccc(Oc3cncc(C(=O)O)c3)cc2)n(Cc2ccc(Cl)cc2)c1=O [Compound I-2547] | 8.10
CC(C)Oc1ccc(/N=c2\[nH]c(=O)n(CC(C)(C)CC(=O)O)c(=O)n2Cc2ccc(Cl)cc2)cc1F [Compound I-0845] | 7.62
CCOC(=O)CNc1ccc(Oc2ccc(/N=c3\[nH]c(=O)n(CC)c(=O)n3Cc3ccc(Cl)cc3)cc2)cn1 [Compound I-2614] | 7.57
Cc1ccc(Cn2c(=O)n(CCC(N)=O)c(=O)[nH]/c2=N\c2ccc(Oc3ncccn3)cc2)cc1 [Compound I-2566] | 7.77
CC(C)Oc1ccc(/N=c2\[nH]c(=S)n(C(C)C)c(=O)n2Cc2ccc(Cl)cc2)cc1Cl [Compound I-2257, 1-(4-chlorobenzyl)-3-isopropyl-6-(3-chloro-4-isopropoxyphenylimino)-4-thioxo-1,3,5-triazinane-2-one] | 6.82
COCCn1c(=O)[nH]/c(=N\c2ccc(Oc3ccnc(C(=O)OC)c3)cc2)n(Cc2ccc(Cl)cc2)c1=O [Compound I-2536] | 8.30
Cc1ccc(Cn2c(=O)n(C)c(=O)[nH]/c2=N\c2ccc(Oc3nccc(C(=O)O)n3)cc2)cc1 [Compound I-2403] | 7.21
CCn1c(=O)[nH]/c(=N\c2ccc(Oc3ccnc(C(N)=O)c3)cc2)n(Cc2ccc(Cl)cn2)c1=O [Compound I-2237] | 7.70
O=C(Cn1c(=O)[nH]/c(=N\c2ccc(Oc3cnsn3)cc2)n(Cc2ccc(Cl)cc2)c1=O)NCCO [Compound I-2677] | 8.15
CCn1c(=O)[nH]/c(=N\c2ccc(O[C@H]3CN[C@H](C(=O)OC)C3)cc2)n(Cc2ccc(Cl)cc2)c1=O [Compound I-2277] | 6.97
Cc1ccc(Cn2c(=O)n(C[C@H](C)C(=O)O)c(=O)[nH]/c2=N\c2cnc(OC3CCC3)c(C)c2)cc1 [Compound I-1482] | 7.01
